Data as given in patent US12031977B2, “Ex vivo system for determining multiple drug-drug transporter interactions and methods of use thereof” (Massachusetts Institute of Technology, priority 2019, dated 2024).
Counter-ions that a name gives are not always drawn. Like-named read-outs stand apart in the source and are kept apart here. d = 2'-deoxy (DNA); r = 2'-OH (RNA)

What was measured:
BCRP [1] = target: T1, BCRP (Sus scrofa, UniProt Q8MIB3); experiment: ex vivo perfusion versus gradually reduced BCRP expression; format: in vitro ADME, porcine
T1 construct: Small intestinal tissue was isolated from intact gastrointestinal tract immediately after euthanasia; from tissue; host or cells: porcine small intestine explant, BCRP level lowered by graded siRNA doses
T1 sequence (Q8MIB3 1-656): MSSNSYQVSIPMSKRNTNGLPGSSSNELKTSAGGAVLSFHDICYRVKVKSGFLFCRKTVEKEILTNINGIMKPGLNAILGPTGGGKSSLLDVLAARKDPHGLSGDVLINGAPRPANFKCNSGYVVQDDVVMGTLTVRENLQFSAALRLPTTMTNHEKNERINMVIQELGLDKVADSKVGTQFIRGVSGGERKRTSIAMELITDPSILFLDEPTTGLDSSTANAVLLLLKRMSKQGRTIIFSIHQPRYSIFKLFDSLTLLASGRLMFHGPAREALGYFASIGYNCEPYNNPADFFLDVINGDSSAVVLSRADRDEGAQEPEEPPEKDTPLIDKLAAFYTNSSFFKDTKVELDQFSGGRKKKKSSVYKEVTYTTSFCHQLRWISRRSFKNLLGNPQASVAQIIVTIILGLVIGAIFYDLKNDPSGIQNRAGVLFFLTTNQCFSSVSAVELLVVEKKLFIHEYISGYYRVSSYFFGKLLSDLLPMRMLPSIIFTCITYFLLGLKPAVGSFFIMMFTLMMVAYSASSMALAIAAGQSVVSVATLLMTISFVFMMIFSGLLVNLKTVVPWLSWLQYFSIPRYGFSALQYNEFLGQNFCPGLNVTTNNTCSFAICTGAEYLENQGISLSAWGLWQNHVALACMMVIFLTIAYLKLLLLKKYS
Description: (§1) Next perfusion of drugs that are known to be substrates for multiple transporters was studied. […] To be able to delineate such effects, it was aimed to down regulate multiple transporters simultaneously. Two siRNAs targeting P-gp and BCRP were co-delivered with varying concentrations of each siRNA and noted that expression levels could be fine-tuned in a dose-dependent, linear fashion (Pearson r=0.79 and 0.96, FIG. 5C). Next, how the simultaneous and gradual down regulation of transporter expression impacts drug perfusion was studied. Perfusion of BCRP-specific substrates increased linearly with reduced BCRP-expression (dauricine R=0.7, hymecromone sulfate R=0.81) but were not affected by altering P-gp expression (p>0.28 one-tailed Z test at maximum siPgp concentration; FIG. 5C).

P-gp [2] = target: T2, P-gp (Sus scrofa, UniProt K7GMM7); experiment: ex vivo perfusion versus altered P-gp expression; format: in vitro ADME, porcine
T2 construct: Small intestinal tissue was isolated from intact gastrointestinal tract immediately after euthanasia; from tissue; host or cells: porcine small intestine explant, P-gp level lowered by graded siRNA doses
T2 sequence (K7GMM7 1-1248): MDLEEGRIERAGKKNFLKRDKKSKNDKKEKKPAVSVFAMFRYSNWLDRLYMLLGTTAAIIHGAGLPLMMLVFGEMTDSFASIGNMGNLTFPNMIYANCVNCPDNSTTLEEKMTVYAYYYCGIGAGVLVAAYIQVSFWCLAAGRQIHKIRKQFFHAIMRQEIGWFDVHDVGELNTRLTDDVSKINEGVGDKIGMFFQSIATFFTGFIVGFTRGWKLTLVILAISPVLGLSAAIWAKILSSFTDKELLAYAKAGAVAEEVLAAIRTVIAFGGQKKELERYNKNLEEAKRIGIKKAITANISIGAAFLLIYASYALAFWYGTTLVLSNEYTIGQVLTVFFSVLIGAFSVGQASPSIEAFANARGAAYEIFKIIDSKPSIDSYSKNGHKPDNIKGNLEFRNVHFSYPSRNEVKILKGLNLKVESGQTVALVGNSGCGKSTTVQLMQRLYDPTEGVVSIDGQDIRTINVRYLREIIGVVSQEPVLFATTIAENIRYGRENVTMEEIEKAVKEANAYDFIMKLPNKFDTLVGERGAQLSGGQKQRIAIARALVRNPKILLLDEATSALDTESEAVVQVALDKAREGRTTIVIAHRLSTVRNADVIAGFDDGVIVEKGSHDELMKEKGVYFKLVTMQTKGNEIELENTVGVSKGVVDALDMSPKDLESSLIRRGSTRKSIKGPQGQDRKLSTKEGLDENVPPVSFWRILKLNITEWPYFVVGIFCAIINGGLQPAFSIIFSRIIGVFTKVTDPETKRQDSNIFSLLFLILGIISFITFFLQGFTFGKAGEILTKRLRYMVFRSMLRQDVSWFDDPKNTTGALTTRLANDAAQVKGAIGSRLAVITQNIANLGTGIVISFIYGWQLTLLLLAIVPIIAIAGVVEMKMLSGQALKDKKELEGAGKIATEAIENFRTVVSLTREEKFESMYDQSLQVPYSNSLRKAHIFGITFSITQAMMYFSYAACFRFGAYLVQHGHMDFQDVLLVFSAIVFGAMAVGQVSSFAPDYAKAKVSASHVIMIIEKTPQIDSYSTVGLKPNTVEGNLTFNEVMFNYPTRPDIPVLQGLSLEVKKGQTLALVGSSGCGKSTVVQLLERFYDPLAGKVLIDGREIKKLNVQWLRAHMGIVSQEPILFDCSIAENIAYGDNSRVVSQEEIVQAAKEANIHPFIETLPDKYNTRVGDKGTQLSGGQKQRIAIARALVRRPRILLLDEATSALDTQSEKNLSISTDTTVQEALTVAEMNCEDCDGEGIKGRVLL
Description: as §1

Pgp, BCRP, MRP2 = conditions: cited from earlier work
P-gp, BCRP, and MRP2 [3] = experiment: mock screening of model drugs: ex vivo perfusion through porcine small intestine tissue after siRNA knockdown; conditions: transporter(s) found by siRNA knockdown perfusion screen
Description: (§4) Pig tissue was freshly sourced from local slaughter houses (i.e., Leman & Sons, Hilltown Pork, and Blood Farm). Small intestinal tissue was isolated from intact gastrointestinal tract immediately after euthanasia, and dissected longitudinally. A series of washes with PBS supplemented with 5% Antibiotic-Antimycotic solution (Thermo Fisher Scientific) was applied to the tissue until clean under sterile conditions. Then, the tissue was mounted on a device filled with PBS (5% Antibiotic-Antimycotic) solution and cultured at 37° C. incubation with 5% CO2 supplement.
(§5) siRNA duplex solution was diluted into PBS solution to a final concentration of 1 μM. […] Tissue was cultured for 24 hours before the perfusion assay.
(§6) The device consists of a bottom reservoir plate and an upper load plate. Both plates were made by laser cutting (Universal Laser Systems VLS6.60) a standard 48-well plate outline and well pattern (Corning 48 well plate, transparent) as well as magnet holes onto an acrylic sheet (McMaster-Carr 1/4″ thickness). Neodymium magnets (K&J Magnetics Cylinder, 3/16″× 3/16″, N52, NI) were press fitted into the magnet holes of both plates. Seal film (Thermo) was applied to seal the bottoms of the wells of the reservoir plate, and PBS solution was loaded into each well. Then, tissue was placed on top of the reservoir plate and the upper load plate was laid on top of the tissue. The magnets were oriented to align and attract the two plates together, ensuring a strong seal between the wells.
(§7) For ex vivo perfusion study, the detection of each drug is based on either fluorescent or absorbance measurements according to the literature. A 1 mg/mL drug stock was prepared for each drug in PBS (pH 7.4). For water-insoluble drugs, a final concentration of DMSO in PBS was used to solubilize drugs.

P-gp, BCRP, and MRP2 [4] = tested on: P-gp, BCRP, and MRP2
Description: as §4, §5, §6, §7

cytochrome P450 3A4 = cytochrome P450 3A4 (Homo sapiens, UniProt P08684); conditions: cited from earlier work
Sequence of cytochrome P450 3A4 (P08684 whole entry): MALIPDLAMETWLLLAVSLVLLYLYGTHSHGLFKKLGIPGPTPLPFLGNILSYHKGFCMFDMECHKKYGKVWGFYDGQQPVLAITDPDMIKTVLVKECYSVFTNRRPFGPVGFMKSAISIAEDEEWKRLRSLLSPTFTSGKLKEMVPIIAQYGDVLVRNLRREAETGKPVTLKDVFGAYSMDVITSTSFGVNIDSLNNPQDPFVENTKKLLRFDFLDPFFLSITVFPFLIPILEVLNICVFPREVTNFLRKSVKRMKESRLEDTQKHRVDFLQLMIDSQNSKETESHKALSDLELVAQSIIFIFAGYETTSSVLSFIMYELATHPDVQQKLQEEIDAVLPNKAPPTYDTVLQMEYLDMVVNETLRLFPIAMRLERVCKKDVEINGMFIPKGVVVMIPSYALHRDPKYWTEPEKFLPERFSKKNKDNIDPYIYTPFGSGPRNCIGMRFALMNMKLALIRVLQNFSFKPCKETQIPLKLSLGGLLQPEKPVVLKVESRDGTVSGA

P-gp, BCRP, or MRP2 = experiment: in vivo pharmacokinetic study with oral transport inhibitor pre-treatment; conditions: oral gavage, serum, 60 minutes; verapamil for P-gp, imatinib for BCRP, or probenecid for MRP2; p<0.05
BCRP [5] = experiment: siRNA dose versus transporter expression (western-blot); format: cell-based, porcine; conditions: co-delivery with varying concentrations, 0 to 25 μM
Description: (§2) FIGS. 5A-5B show the level of reduction in P-gp and BCRP drug transporter expression depends on the dose of siRNA (0 to 25 μM) administered to the intestinal tissue explant.
(§3) Tissue was dissected and snap frozen in liquid nitrogen. Every 1 mg of tissue sample was homogenized in 100 μL of RIPA buffer supplied with protease inhibitor (Roche) by Berkin 24-cycle homogenizer. After centrifugation, the protein concentration from the supernatant was determined by BCA assay (Pierce) according to manufactory protocol. A total of 100 μg of protein was loaded on each lane for western-blotting. Blots were imaged with Bio-rad universal Hood Ii Molecular Imager (1312M) with Chemiluminescence method. Contrast setting was set for auto-contrast for all images.
as §1, with “Perfusion of BCRP-specific substrates increased linearly with reduced BCRP-expression (dauricine R=0.7, hymecromone sulfate R=0.81) but were not affected by altering P-gp expression (p>0.28 one-tailed Z test at maximum siPgp concentration; FIG. 5C).” left out

BCRP and MRP2 = experiment: ex vivo perfusion with doxycycline co-treatment
Description: Four candidate drugs that are known substrates of BCRP and MRP2 were manually selected to study whether they could potentially interact with doxycycline.
As a first-line test (FIG. 10), ex vivo perfusion experiments were conducted to test for changes in absorption when co-administering the candidates with doxycycline.

P-gp [6] = experiment: siRNA dose versus transporter expression (western-blot); format: cell-based, porcine; conditions: co-delivery with varying concentrations, 0 to 25 μM
Description: as §2, §3
as §1, with “Perfusion of BCRP-specific substrates increased linearly with reduced BCRP-expression (dauricine R=0.7, hymecromone sulfate R=0.81) but were not affected by altering P-gp expression (p>0.28 one-tailed Z test at maximum siPgp concentration; FIG. 5C).” left out

[7] = target: T3, P-gp, BCRP, MRP2, PEPT1, and MCT1 (Sus scrofa, UniProt Q8MIB3); experiment: ex vivo perfusion of known substrates and non-substrates after knockdown of a single transporter; format: in vitro ADME, porcine; conditions: other drugs p<0.01
T3 construct: Small intestinal tissue was isolated from intact gastrointestinal tract immediately after euthanasia; from tissue; host or cells: porcine small intestine explant, single transporter knocked down by siRNA
T3 sequence (Q8MIB3 1-656): T1 sequence (Q8MIB3 1-656)
Description: If a molecule is transported by a specific transporter, its diffusion across the tissue should be impacted by selectively down regulating that transporter. To validate that the platform accurately captures this behavior, a total of 23 known transporter-drug relationships was tested.

[8] = transporter(s) reported in previous literature for the drug

hymecromone sulfate
R, perfusion increase versus reduced BCRP-expression (BCRP [1]; BCRP-specific substrates, linear relation, FIG. 5C): 0.81 | perfusion on altering P-gp expression (P-gp [2]; BCRP-specific substrates, p>0.28 one-tailed Z test at maximum siPgp concentration): not affected

COc1cc2c(cc1OC)[C@@H](Cc1ccc(Oc3cc(C[C@@H]4c5cc(OC)c(OC)cc5CCN4C)ccc3O)cc1)N(C)CC2 [dauricine]
R, perfusion increase versus reduced BCRP-expression (BCRP [1]; pig): 0.7 | perfusion on altering P-gp expression (P-gp [2]): not affected

CNC(=C[N+](=O)[O-])NCCSCc1ccc(CN(C)C)o1 [Ranitidine]
Literature Target (Pgp, BCRP, MRP2; [8]): Pgp & BCRP | Platform Target (P-gp, BCRP, and MRP2 [3]): Pgp & BCRP & MRP2

O=c1ccc2ccccc2o1 [Coumarin]
Literature Target (Pgp, BCRP, MRP2; [8]): Pgp | Platform Target (P-gp, BCRP, and MRP2 [3]): Pgp

CN(C)[C@@H]1C(O)=C(C(N)=O)C(=O)[C@@]2(O)C(O)=C3C(=O)c4c(O)ccc(Cl)c4[C@@](C)(O)[C@H]3C[C@@H]12 [Chlorotetracycline]
Platform Target (P-gp, BCRP, and MRP2 [4]): no target | Literature Target (Pgp, BCRP, MRP2): no target

CC(C)(C)NCC(O)c1cc(O)cc(O)c1 (stereo not shown) [Terbutaline]
Literature Target (Pgp, BCRP, MRP2; [8]): no target | Platform Target (P-gp, BCRP, and MRP2 [3]): no target

N[C@@H](Cc1ccccc1)C(=O)O [L-phenylalanine]
Literature Target (Pgp, BCRP, MRP2; [8]): no target | Platform Target (P-gp, BCRP, and MRP2 [3]): no target

NCCC(O)(P(=O)(O)O)P(=O)(O)O [Pamidronate disodium salt hydrate]
Literature Target (Pgp, BCRP, MRP2; [8]): no target | Platform Target (P-gp, BCRP, and MRP2 [3]): Pgp

CC(=O)CC(c1ccccc1)c1c(O)c2ccccc2oc1=O (stereo not shown) [Warfarin]
metabolism through cytochrome P450 3A4 (cytochrome P450 3A4): metabolized through cytochrome P450 3A4 | known substrate of transporters (Pgp, BCRP, MRP2): BCRP and MRP2 | Literature Target (Pgp, BCRP, MRP2; [8]): Pgp & BCRP | Platform Target (P-gp, BCRP, and MRP2 [3]): Pgp & BCRP

CN1C(C(=O)Nc2ccccn2)=C(O)c2ccccc2S1(=O)=O [Piroxicam]
Literature Target (Pgp, BCRP, MRP2; [8]): no target | Platform Target (P-gp, BCRP, and MRP2 [3]): no target

NC(=O)N1c2ccccc2C=Cc2ccccc21 [Carbamazepine]
Literature Target (Pgp, BCRP, MRP2; [8]): Pgp | relative AUC (drug absorption) with versus without transport inhibitor (P-gp, BCRP, or MRP2): did not show the expected effect | Platform Target (P-gp, BCRP, and MRP2 [3]): Pgp & BCRP

siRNA targeting BCRP: siRNA duplex, sense SEQ ID NO: 95, antisense SEQ ID NO: 96 (sense ACUUCUUCCUGGACGUCAUUATT; antisense UAAUGACGUCCAGGAAGAAGUTT; chemistry not given here)
Pearson r, expression level versus siRNA dose (BCRP [5]): 0.96

CC(C)(C)NCC(O)COc1cccc2c1CC(O)C(O)C2 (stereo not shown) [Nadolol]
Literature Target (Pgp, BCRP, MRP2; [8]): no target | Platform Target (P-gp, BCRP, and MRP2 [3]): BCRP

C[C@H]1O[C@@H](O[C@H]2[C@@H](O)C[C@H](O[C@H]3[C@@H](O)C[C@H](O[C@H]4CC[C@@]5(C)[C@H](CC[C@@H]6[C@@H]5C[C@@H](O)[C@]5(C)[C@@H](C7=CC(=O)OC7)CC[C@]65O)C4)O[C@@H]3C)O[C@@H]2C)C[C@H](O)[C@@H]1O [digoxin]
perfusion / absorption upon co-treatment with doxycycline (BCRP and MRP2): increased absorption | metabolism through cytochrome P450 3A4 (cytochrome P450 3A4): not cytochrome substrates | known substrate of transporters (Pgp, BCRP, MRP2): BCRP and MRP2

CN(C)C(=O)C(CCN1CCC(O)(c2ccc(Cl)cc2)CC1)(c1ccccc1)c1ccccc1 [Loperamide]
Platform Target (P-gp, BCRP, and MRP2 [4]): no target | Literature Target (Pgp, BCRP, MRP2): no target

C[C@H]1c2cccc(O)c2C(=O)C2=C(O)[C@]3(O)C(=O)C(C(N)=O)=C(O)[C@@H](N(C)C)[C@@H]3[C@@H](O)[C@@H]21 [Doxycycline]
known substrate of transporters (Pgp, BCRP, MRP2): P-gp and OAT1 | Literature Target (Pgp, BCRP, MRP2; [8]): no target | relative AUC (drug absorption) with versus without transport inhibitor (P-gp, BCRP, or MRP2): novel BCRP and MRP2 substrate | Platform Target (P-gp, BCRP, and MRP2 [3]): BCRP & MRP2

siRNA targeting P-gp: siRNA duplex, sense SEQ ID NO: 91, antisense SEQ ID NO: 92 (sense AUGACAGUGUACGCCUAUUAUTT; antisense AUAAUAGGCGUACACUGUCAUTT; sugars from the 5' end r21 d2, backbone not given here)
Pearson r, expression level versus siRNA dose (P-gp [6]): 0.79

C=CC[C@@H]1/C=C(\C)C[C@H](C)C[C@H](OC)[C@H]2O[C@@](O)(C(=O)C(=O)N3CCCC[C@H]3C(=O)O[C@H](/C(C)=C/[C@@H]3CC[C@@H](O)[C@H](OC)C3)[C@H](C)[C@@H](O)CC1=O)[C@H](C)C[C@@H]2OC [tacrolimus]
perfusion / absorption upon co-treatment with doxycycline (BCRP and MRP2; ex vivo, LC-MS/MS, p<0.05): increased absorption | metabolism through cytochrome P450 3A4 (cytochrome P450 3A4): metabolized through cytochrome P450 3A4 | known substrate of transporters (Pgp, BCRP, MRP2): BCRP and MRP2

CC[C@@H](C(N)=O)N1CCCC1=O [levetiracetam]
perfusion / absorption upon co-treatment with doxycycline (BCRP and MRP2): increased absorption | metabolism through cytochrome P450 3A4 (cytochrome P450 3A4): not cytochrome substrates | known substrate of transporters (Pgp, BCRP, MRP2): BCRP and MRP2

Ergotamine D-tartrate
Literature Target (Pgp, BCRP, MRP2; [8]): Pgp | Platform Target (P-gp, BCRP, and MRP2 [3]): Pgp & BCRP & MRP2

CCOc1nc2cccc(C(=O)OC(C)OC(=O)OC3CCCCC3)c2n1Cc1ccc(-c2ccccc2-c2nnn[nH]2)cc1 (stereo not shown) [Candesartan cilexetil]
Literature Target (Pgp, BCRP, MRP2; [8]): Pgp | Platform Target (P-gp, BCRP, and MRP2 [3]): no target

CC(C)c1nc(N(C)S(C)(=O)=O)nc(-c2ccc(F)cc2)c1/C=C/[C@@H](O)C[C@@H](O)CC(=O)O [Rosuvastatin]
p, two-tailed T test, of perfusion increase after knockdown [7]: 2%
